Measured values taken from publication PMC10604187 (Antioxidants, 2023).
Read-outs that look alike come from different tables or passages of the source.

Legend:
freshly-cut apple slices = assay: Anti-browning assay of freshly-cut apple slices; set-up: species or system Malus pumila Miller; details: for L* value change (ΔL*): 48 h storage time point; for inhibition at 5000 µM: Malus pumila, read-out: inhibition of apple slice browning (relative browning intensity) compared to control
Protocol: Apples (Malus pumila Miller) of similar maturity were purchased from a local market (Emart24®, Busan, Republic of Korea). The apples were cut into small equal-sized pieces (W × D × H, 1.5 ± 0.1 cm × 1.5 ± 0.1 cm × 0.3 ± 0.05 cm). Three apple slices were placed in glass dishes with a diameter of 5 cm.
(§1) The apple slice dishes were placed in an incubator maintained at 20 °C. Kojic acid and PTU were used as positive controls. All samples, except PTU, were prepared as aqueous solutions. PTU test samples were prepared in a DMSO solution as it is only soluble in water at very low concentrations.
At five time points (0, 12, 24, 36, and 48 h), apple slices were photographed using a camera (iPhone 11), and browning colors (a*, b*, and L*) were measured using a CR-10 spectrophotometer (Konica Minolta Sensing, Inc., Osaka, Japan). In the spectrophotometer, the colors were described by a* (redness and greenness), b* (yellowness and blueness), and L* (lightness) values according to the Commission Internationale de l’Eclairage (CIE) color system. The overall color difference (ΔE) was calculated using the following formula: (ΔE)^2 = (a − ainitial)^2 + (b − binitial)^2 + (L − Linitial)^2. In addition, based on the photographs, the relative browning intensities were calculated using CS analyzer 3.2 image analysis software.

[1] = Water solubility (statement); format: physicochemical
Protocol: as §1

[2] = In vitro ROS scavenging assay (SIN-1, DCFH-DA); details: 40 μM, ROS enhanced by SIN-1
Protocol: At emission and excitation wavelengths of 535 and 485 nm, fluorescence intensity was measured using a fluorescence microplate reader (Berthold Technologies GmbH & Co., Wien, Austria).
Hydrolyzed DCFH reacts with ROS to produce the fluorescent substance dichlorofluorescein (DCF). The ROS-scavenging effects of the analogs were determined by measuring the emitted fluorescence. The in vitro ROS-scavenging effects were measured using 40 μM test samples.

[3] = ABTS radical cation scavenging assay; details: 100 μM test samples
Protocol: The ABTS radical cation-scavenging activities of analogs 1–10 were investigated according to a previously described protocol with minor modifications. Briefly, to prepare a test solution for the ABTS radical cation scavenging activity, potassium persulfate aqueous solution (10 mL, 2.45 mM) was mixed with ABTS aqueous solution (10 mL, 7 mM) and left for 12 h at room temperature in the dark until the absorbance remained constant. Prior to the ABTS radical cation scavenging assay experiments, the absorbance at 734 nm was adjusted to 0.70 ± 0.02 by diluting the ABTS radical cation solution with water. An aliquot (10 µL) of 1–10 or Trolox (the positive reference material) at 100 µM was mixed with the ABTS radical cation solution (90 µL) in each well of a 96-well plate and incubated for 10 min at ambient temperature in the dark. The optical density of each well was measured at 734 nm using a VersaMax® microplate reader. All experiments were performed independently 3 times.
The antioxidant potential of 1–10 was investigated using the ABTS radical cation scavenging technique. ABTS can be easily oxidized to the corresponding radical cation by oxidants such as potassium persulfate. Because of the correlation between melanogenesis and antioxidant activity, the ABTS radical-scavenging ability of 1–10 was examined. […]

[4] = DPPH radical scavenging assay; details: 1 mM test samples, 0.5 h
Protocol: The DPPH radical scavenging activities of analogs 1–10 were evaluated according to a previously described protocol to examine the antioxidant effects of analogs 1–10. Briefly, an aliquot (180 µL) of DPPH methanol solution (0.2 mM) was mixed with a 2-MBI analogs’ DMSO (dimethyl sulfoxide) solution in each well of a 96-well plate, and the mixture was left in the dark for 0.5 h at room temperature. The optical density of each well was analyzed using a microplate reader (VersaMax®, Molecular Devices, Sunnyvale, CA, USA).
As the antioxidant ability of a compound may be involved in the inhibition of melanogenesis, the antioxidant effects of analogs 1–10 on DPPH radicals were explored. Vitamin C (L-ascorbic acid), a strong antioxidant, was used as the positive control. After mixing the test sample and DPPH solutions and standing at room temperature in the dark for 0.5 h, the absorbances of the mixed samples were measured at 517 nm using 1 mM test samples.

HEK-293 cells = assay: Cell viability (EZ-Cytox) assay in HEK-293 cells; format: cell-based, human; details: 40 μM (maximum concentration), 24 h
Protocol: HEK-293 cells were obtained from American Type Culture Collection (ATCC; Manassas, VA, USA). Trypsin, streptomycin, fetal bovine serum (FBS), phosphate-buffered saline (PBS), penicillin, and Dulbecco’s modified Eagle’s medium (DMEM) for HEK-293 cell culture were purchased from Thermo Fisher Scientific (Carlsbad, CA, USA). HEK-293 cells were cultured in a DMEM solution containing penicillin (100 IU/mL), 10% heat-inactivated FBS, and streptomycin (100 µg/mL) in a 5% CO2 environment at 37 °C.
Cytotoxicity assays were performed using an EZ-Cytox assay (EZ-1000, DoGenBio, Seoul, Republic of Korea) in HEK-293 cells. Briefly, 96-well plates containing HEK-293 cells at a density of 1 × 10^4 cells per well were cultured in a 5% CO2 environment at 37 °C for 24 h. After 20 h, cells were treated with 2-MBI analogs 1−10 at 4 different concentrations (final concentration: 0, 2.5, 10, and 40 µM) and incubated for 24 h at 37 °C in a 5% CO2 environment. Then, 10 µL aliquot of the EZ-Cytox solution was added to each well. After 2 h incubation at 37 °C, the absorbance of each well was measured using a microplate reader (VersaMax®; Molecular Devices) at 450 nm.

mushroom tyrosinase [5] = target: T1, mushroom tyrosinase (Agaricus bisporus, UniProt C7FF04); assay: biochemical; details: for mode of tyrosinase inhibition: Lineweaver–Burk plots, L-dopa
Protocol: Briefly, a dimethyl sulfoxide (DMSO) solution (10 µL) containing test analogs (final concentrations: 0, 5, 10, and 20 nM) was added to the wells of a 96-well plate containing mushroom tyrosinase (20 µL, 200 units/mL) and an aqueous solution (170 µL) consisting of L-dopa (final concentrations: 0.125, 0.25, 0.5, 1, 2, 4, and 8 mM) and phosphate buffer (final concentration: 14.7 mM, pH 6.5). The increase in the absorbance at 475 nm (ΔOD475/min) was measured using a VersaMax^TM microplate reader to determine the initial rate of dopachrome generation. The maximal velocity (Vmax) was determined from the y-axis intercept values of the Lineweaver–Burk plots obtained at seven different L-dopa concentrations. Dixon plots were obtained from Lineweaver–Burk plots for inhibitors by plotting the reciprocal of the reaction velocity against the inhibitor concentration.
Target sequence in this assay (C7FF04 1-392): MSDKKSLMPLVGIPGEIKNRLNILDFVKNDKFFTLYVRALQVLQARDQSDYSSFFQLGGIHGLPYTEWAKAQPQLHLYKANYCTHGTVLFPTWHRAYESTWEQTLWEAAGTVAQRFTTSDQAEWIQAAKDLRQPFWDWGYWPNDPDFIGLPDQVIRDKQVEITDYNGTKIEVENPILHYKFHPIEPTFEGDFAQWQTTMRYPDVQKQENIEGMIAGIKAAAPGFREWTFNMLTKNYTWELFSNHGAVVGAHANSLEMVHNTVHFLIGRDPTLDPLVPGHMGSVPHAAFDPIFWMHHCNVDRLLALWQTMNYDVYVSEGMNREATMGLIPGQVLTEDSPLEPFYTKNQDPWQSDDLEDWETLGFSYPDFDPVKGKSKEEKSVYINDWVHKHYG

mushroom tyrosinase [6] = target: T1, mushroom tyrosinase; assay: Mushroom tyrosinase inhibitory assay, diphenolase activity (L-dopa substrate); format: biochemical; details: vs kojic acid
Protocol: The effect of the analogs on enzyme inhibition was investigated in the presence of L-dopa and L-tyrosine. […] After incubating the assay mixture for 0.5 h at 37 °C, the amounts of dopachrome produced during the incubation time were evaluated by measuring the absorbances of each well at 475 nm using a VersaMax^TM microplate reader (Molecular Devices, Sunnyvale, CA, USA).
Target sequence in this assay (C7FF04 2-392): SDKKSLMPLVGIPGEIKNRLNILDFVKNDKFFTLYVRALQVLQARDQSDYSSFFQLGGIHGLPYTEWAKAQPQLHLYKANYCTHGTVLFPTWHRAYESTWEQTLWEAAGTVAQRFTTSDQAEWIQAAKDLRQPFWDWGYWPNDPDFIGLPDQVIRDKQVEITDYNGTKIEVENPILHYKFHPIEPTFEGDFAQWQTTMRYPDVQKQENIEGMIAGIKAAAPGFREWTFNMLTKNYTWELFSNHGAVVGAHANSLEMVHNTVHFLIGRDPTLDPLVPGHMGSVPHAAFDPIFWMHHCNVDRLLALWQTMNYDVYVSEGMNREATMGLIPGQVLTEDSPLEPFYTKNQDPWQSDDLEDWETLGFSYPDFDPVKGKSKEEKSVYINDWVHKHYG

[7] = 5 mM spray (analogs as sodium salts)
[8] = 5 mM spray every 12 h (analogs as sodium salts), 36 h storage, 20 °C

For `NC(=S)Nc1ccccc1` [PTU, phenylthiourea, reference compound], the “L* value change (ΔL*)” value (freshly-cut apple slices; [7]) was 3.4, the inhibition at 5000 µM (freshly-cut apple slices) was 21.9% and the water solubility [1] was “poorly soluble in water”.
For `Cc1c(C)c2c(c(C)c1O)CCC(C)(C(=O)O)O2` (stereo not drawn) [Trolox, reference compound], the “in vitro ROS scavenging effect” value [2] was “greatly reduced” and the “ABTS radical cation scavenging activity, inhibition” value [3] was 96%.
In the case of `O=C1O[C@H]([C@@H](O)CO)C(O)=C1O` [Vitamin C, L-ascorbic acid], the “DPPH radical scavenging activity, inhibition” value [4] is reported as 98%.
`Sc1nc2ccccc2[nH]1` [analog 1, 1H-Benzo[d]imidazole-2-thiol] gave an inhibition at 5000 µM (freshly-cut apple slices) of 28.5 to 36.1%.
For `Cc1cc2nc(S)[nH]c2cc1C` [analog 3, 5,6-Dimethyl-1H-benzo[d]imidazole-2-thiol], the “cytotoxicity in HEK-293 cells” value (HEK-293 cells) was “weakly”.
With `Sc1nc2cc(Cl)ccc2[nH]1` [analog 4, 5-Chloro-1H-benzo[d]imidazole-2-thiol] the “in vitro ROS scavenging effect” value [2] was “most potently reduced”.
With `COc1ccc2[nH]c(S)nc2c1` [analog 5, 5-Methoxy-1H-benzo[d]imidazole-2-thiol] the “L* value change (ΔL*)” value (freshly-cut apple slices; [7]) was 8.2.
With `O=C(c1ccccc1)c1ccc2[nH]c(S)nc2c1` [analog 6, (2-Mercapto-1H-benzo[d]imidazol-5-yl)(phenyl)methanone] the Ki (mushroom tyrosinase [5]) was 8.6 nM, the “mode of tyrosinase inhibition” value (mushroom tyrosinase [5]) was “competitive” and the “cytotoxicity in HEK-293 cells” value (HEK-293 cells) was “moderately cytotoxic”. The “fold more potent than kojic acid, diphenolase activity” value (mushroom tyrosinase [6]) was 970 fold.
In the case of `O=[N+]([O-])c1ccc2[nH]c(S)nc2c1` [analog 7, 5-Nitro-1H-benzo[d]imidazole-2-thiol], the “L* value change (ΔL*)” value (freshly-cut apple slices; [7]) is reported as 1.3.
In the case of `Cc1cccc2[nH]c(S)nc12` [analog 9, 4-Methyl-1H-benzo[d]imidazole-2-thiol], the inhibition at 5000 µM (freshly-cut apple slices; [8]) is reported as 28.5 to 36.1% and the “ABTS radical cation scavenging activity, inhibition” value [3] is reported as 90%.
In the case of `N#Cc1ccc2[nH]c(S)nc2c1` [analog 10, 2-Mercapto-1H-benzo[d]imidazole-5-carbonitrile], the Ki (mushroom tyrosinase [5]) is reported as 14.8 nM, the “mode of tyrosinase inhibition” value (mushroom tyrosinase [5]) is reported as “competitive” and the “L* value change (ΔL*)” value (freshly-cut apple slices; [7]) is reported as 3.1. The “overall color difference (ΔE) of apple slices” value (freshly-cut apple slices; 5 mM spray (analogs as sodium salts), over 48 h storage) was “lowest increase in ΔE” and the inhibition at 5000 µM (freshly-cut apple slices; [8]) was 28.5 to 36.1%.
In the case of `O=c1cc(CO)occ1O` [kojic acid, reference compound], the “L* value change (ΔL*)” value (freshly-cut apple slices; [7]) is reported as 6.4 and the inhibition at 5000 µM (freshly-cut apple slices; [8]) is reported as 7%.
